Data reported in patent publication US8383384B2, “Polypeptide having glycosylation activity on a flavonoid” (Suntory Holdings Limited, priority 2007, dated 2013).

Tests used:
TRa2 = assay: Glycosyl donor selectivity of TRa2; type: biochemical, Trichoderma viride; details: under the conditions shown in the Example section
Source text: Moreover, this enzyme is a glycosyltransferase capable of producing not only sugars composed of one or two glucose molecules, but also glycosides whose sugar chain length is three (G3) or more glucose molecules.

[1] = Heat stability of glycoside (% remaining, HPLC); type: physicochemical; details: 100 μM in 10 mM potassium phosphate buffer pH 7.0, 4° C. to 100° C., 0 to 4 hours
Method: After 10 mM potassium phosphate buffer (pH 7.0, 30 μl) containing 100 μM (+)-catechin or 4′-O-α-D-glucopyranosyl-(+)-catechin was treated at different temperatures ranging from 4° C. to 100° C. for 0 to 4 hours, each sample was transferred on ice and mixed with 0.1% TFA (60 μl), followed by HPLC analysis in the same manner as shown in Example 1.

[2] = Solubility in water (HPLC quantification of supernatant); type: physicochemical; details: added to water at 10 to 450 mg/ml, vigorous stirring, centrifugation

Row | Structure (SMILES) | use as glycosyl donor by TRa2 (TRa2) | also measured
1 | OC[C@H]1O[C@H](O[C@H]2[C@H](O)[C@@H](O)C(O)O[C@@H]2CO)[C@H](O)[C@@H](O)[C@@H]1O (mixture of isomers) [maltose] | does not target | 
2 | OC[C@H]1O[C@H](Oc2ccc([C@H]3Oc4cc(O)cc(O)c4C[C@@H]3O)cc2O)[C@H](O)[C@@H](O)[C@@H]1O [4′-O-α-D-glucopyranosyl-(+)-catechin] |  | heat stability (% remaining) compared with catechin [1]: more stable against heat than catechin
3 | OC[C@H]1O[C@H](Oc2cc(O)cc3c2C[C@H](O)[C@@H](c2ccc(O)c(O)c2)O3)[C@H](O)[C@@H](O)[C@@H]1O [5-O-α-D-glucopyranosyl-(+)-catechin] |  | solubility in water relative to (+)-catechin [2]: at least 40 fold
4 | Oc1cc(O)c2c(c1)O[C@H](c1ccc(O)c(O)c1)[C@@H](O)C2 [(+)-catechin] |  | solubility in water [2]: substantially insoluble in water
5 | O=C[C@H](O)[C@@H](O)[C@H](O[C@@H]1O[C@H](CO)[C@@H](O)[C@H](O)[C@H]1O)[C@H](O)CO [cellobiose] | does not target | 
6 | OC[C@H]1O[C@@H]2O[C@H]3[C@H](O)[C@@H](O)[C@@H](O[C@H]4[C@H](O)[C@@H](O)[C@@H](O[C@H]5[C@H](O)[C@@H](O)[C@@H](O[C@H]6[C@H](O)[C@@H](O)[C@@H](O[C@H]7[C@H](O)[C@@H](O)[C@@H](O[C@H]1[C@H](O)[C@H]2O)O[C@@H]7CO)O[C@@H]6CO)O[C@@H]5CO)O[C@@H]4CO)O[C@@H]3CO [α-cyclodextrin] | does not target | 
7 | OC[C@H]1O[C@@H]2O[C@H]3[C@H](O)[C@@H](O)[C@@H](O[C@H]4[C@H](O)[C@@H](O)[C@@H](O[C@H]5[C@H](O)[C@@H](O)[C@@H](O[C@H]6[C@H](O)[C@@H](O)[C@@H](O[C@H]7[C@H](O)[C@@H](O)[C@@H](O[C@H]8[C@H](O)[C@@H](O)[C@@H](O[C@H]1[C@H](O)[C@H]2O)O[C@@H]8CO)O[C@@H]7CO)O[C@@H]6CO)O[C@@H]5CO)O[C@@H]4CO)O[C@@H]3CO [β-cyclodextrin] | does not target | 
